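96-well plates; 48 h exposure; 5 concentrations. Endpoints by linear interpolation between flanking doses. Not reached: highest tested concentration assigned. GI50 is the concentration that inhibits growth by half. TGI marks complete inhibition of growth.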
How the values were obtained:
Assay in all cases: inhibition of tumour cell growth, NCI panel, 48 h
BT-549 breast = test system: BT-549 breast
CCRF-CEM leukemia = test system: CCRF-CEM leukemia
HOP-62 NSCLC = test system: HOP-62 NSCLC
RPMI-8226 leukemia = test system: RPMI-8226 leukemia
PC-3 prostate = test system: PC-3 prostate
COLO 205 colon = test system: COLO 205 colon
MOLT-4 leukemia = test system: MOLT-4 leukemia
A498 renal = test system: A498 renal
SF-295 CNS = test system: SF-295 CNS
786-0 renal = test system: 786-0 renal

Row | SMILES | TGI (BT-549 breast) [µM] | TGI (CCRF-CEM leukemia) [µM] | TGI (HOP-62 NSCLC) [µM] | TGI (RPMI-8226 leukemia) [µM] | TGI (PC-3 prostate) [µM] | TGI (COLO 205 colon) [µM] | TGI (MOLT-4 leukemia) [µM] | TGI (A498 renal) [µM] | TGI (SF-295 CNS) [µM] | TGI (786-0 renal) [µM] | GI50 (BT-549 breast) [µM] | GI50 (CCRF-CEM leukemia) [µM] | GI50 (HOP-62 NSCLC) [µM] | GI50 (RPMI-8226 leukemia) [µM] | GI50 (PC-3 prostate) [µM] | GI50 (COLO 205 colon) [µM] | GI50 (MOLT-4 leukemia) [µM] | GI50 (A498 renal) [µM] | GI50 (SF-295 CNS) [µM] | GI50 (786-0 renal) [µM]
1 | COc1cccc2c1C(=O)c1c(O)c3c(c(O)c1C2=O)C[C@@](O)(/C(C)=N\O)C[C@@H]3OC1CC(N)C(O)C(C)O1 (stereo not given in full) | 5.65 | 2.38 | 6.46 | 8.33 | 8.08 | 3.56 | 1.55 | 3.31 | 7.84 | 11.1 | – | – | – | – | – | – | – | – | – | –
2 | NCC(=O)CCC(=O)O | > 100 | > 100 | > 100 | > 100 | > 100 | > 100 | > 100 | > 100 | > 100 | > 100 | > 100 | > 87.2 | > 100 | > 100 | > 100 | > 100 | > 100 | > 100 | > 100 | > 100
3 | COc1cccc(C2C(C#N)=C(N)Oc3cc(OC)ccc32)c1 (stereo not given) | 17 | > 45.7 | > 76.6 | 23.7 | > 94.6 | 0.529 | > 37.4 | 0.0709 | 33.9 | > 66.8 | 0.106 | 0.0328 | 0.0418 | 0.0372 | 0.0373 | 0.0464 | 0.0598 | 0.0198 | 0.0286 | 0.0556
4 | COc1ccc(-c2nn(-c3cccc(NC(=O)Nc4cccc(C(F)(F)F)c4)c3)cc2-c2ccncc2)cc1Cl | 4.55 | 7.59 | 10.9 | 4.54 | 8.54 | 3.69 | 8.38 | 5.81 | 7.32 | 10.1 | 1.68 | 1.54 | 2.81 | 1.02 | 0.986 | 1.69 | 1.76 | 1.61 | 1.69 | 2.28
5 | C=C1CO[C@@H]2C[C@@H]1CCC1(C)OC1CC/C(C)=C/CC[C@@]2(C)O (stereo not given in full) | 61.5 | 38.1 | > 100 | 44.5 | 36.9 | > 87.2 | 39.1 | > 100 | 44.7 | > 53.5 | 26.4 | 15.1 | > 58.2 | 16.2 | 18.5 | 34.4 | 17.1 | > 79.1 | 18.4 | > 20.3
6 | CC(C)[C@@H](CS(=O)(=O)C(C)C)N1C(=O)[C@@](C)(CC(=O)O)C[C@H](c2cccc(Cl)c2)[C@H]1c1ccc(Cl)cc1 | 40.3 | 66.1 | 56.7 | 53 | > 69.3 | 34.4 | 11.1 | 16.8 | 33.2 | 75.2 | 12.9 | 18.2 | 17.2 | 15 | 5.75 | 14.7 | 0.338 | 0.537 | 9.09 | 20.8
7 | COc1ccc(C(=O)N/N=C/c2ccc(O)cc2O)cc1Nc1ccnc(C(F)(F)F)c1 | 23.8 | 1.44 | 12.7 | 30.8 | 24.6 | 14.3 | 2.59 | 9.33 | 20.6 | 9.62 | 0.916 | 0.128 | 0.495 | 1.16 | 0.771 | 0.323 | 0.357 | 0.193 | 1.07 | 0.998
8 | CCc1nc(N)nc(N)c1-c1ccc(Cl)c(N=NN(C)C)c1 | > 94.8 | > 73.2 | > 73.9 | 49 | > 100 | 50.7 | 73.5 | > 100 | > 100 | > 95.7 | – | – | – | – | – | – | – | – | – | –
9 | C=C(C(=O)OC)[C@@H]1C[C@@H](O)[C@]2(C)CC/C=C(\C)CCC[C@H](C)[C@H](O)C1O2 | 79.1 | 46 | > 100 | 59 | > 100 | > 100 | 46.5 | > 100 | > 100 | > 100 | 29.5 | 24.2 | > 100 | 27.6 | 30.9 | 36.1 | 18.7 | 65.9 | 83.8 | > 100
10 | O=C1C(=O)c2c(nc3ncccn23)-c2ccccc21 | 0.291 | 3.45 | 1.05 | 0.602 | 1.34 | 4.53 | 0.711 | 1.28 | 0.316 | 0.766 | 0.154 | 0.328 | 0.296 | 0.198 | 0.32 | 2.13 | 0.257 | 0.484 | 0.173 | 0.304
11 | Clc1ccc(-c2cn(-c3ccccc3)c(-c3ccccc3)n2)c(Cl)c1 | > 50 | > 50 | 5.02 | > 10.2 | > 50 | 3.03 | > 50 | > 45.1 | 4.68 | 2.56 | 3.42 | 2.51 | 1.36 | 4.93 | 5.43 | 1.14 | > 20.5 | 12.6 | 1.45 | 1.14
12 | N#CC(=S)Nc1ccc(F)cc1 | > 100 | 54.9 | > 100 | 41.6 | > 100 | > 100 | > 100 | 90.5 | > 100 | > 100 | – | – | – | – | – | – | – | – | – | –

Source: PubChem BioAssay (NCI)
